Measurements: patent US8518903B2, “Use of toll-like receptor-9 agonists” (University of Pittsburgh—of the Commonwealth System of …, priority 2007, dated 2013)

Experiments:
murine intestinal mucosa = assay: LPS-dependent signaling and inflammation in the murine intestinal mucosa in vivo; design: species or system mouse; conditions: LPS + CpG vs LPS
Text: FIG. 10. Experimental design to assess whether TLR9 activation affects TLR4-mediated inflammation in vivo.
(A). Western blot showing levels of signaling molecules phospho-p38 and phospho-ERK (relative to actin) in mice which were either untreated (Ctrl) or treated with LPS, LPS+CpG, or CpG. (B) Bar graph showing serum levels of the inflammatory cytokine IL-6 in mice which were either untreated (Ctrl) or treated with LPS, LPS+CpG, or CpG.
Experiments were then designed to determine whether the above phenomena, observed in vitro, could be confirmed in vivo (see FIG. 10).

[1] = system: experimental NEC in newborn mice; assay: Murine model of necrotizing enterocolitis (formula gavage + hypoxia), CpG treatment; assay type: in vivo, mouse
Experimental: FIG. 18A-D. Histology of intestines from mice that were (A) breast fed (control); (B) gavage fed+hypoxic to model necrotizing enterocolitis (NEC); (C) breast fed and treated with 500 μg/kg (approximately 10 μg/animal, intraperitoneally injected) CpG (control); (D) gavage fed+hypoxic to model NEC and treated with 500 μg/kg (approximately 10 μg/animal, intraperitoneally injected) CpG.
(A) Control mice (injected with saline). (B) Mice injected with 5 mg/kg of LPS. (C) Mice injected with 5 mg/kg of LPS and 1 mg/kg of CpG. (D-G) Immunohistochemical staining of terminal ileum from newborn mice that were either breast fed (“control”) or induced to develop NEC (“NEC”). Sections were stained for caspase 3 as a marker of apoptosis and enterocyte loss; positive staining is indicated by a small arrowhead. (D) Control injected with saline. (E) NEC injected with saline. (F) Control injected with 1 mg/kg CpG-DNA daily for four days. (G) NEC injected with 1 mg/kg CpG-DNA daily for four days. (H) Bar graph summarizing results, showing percent apoptosis in terminal ileum as depicted in (D)-(G).
FIG. 20A-I. Newborn mice were either breast fed (“control”) or were induced to develop NEC (“NEC”). (A) Gross micrograph of intestine of a control mouse. (B) Gross micrograph of intestine of a control mouse treated with 1 mg/kg CpG-DNA daily for four days. (C) Gross micrograph of intestine of a NEC mouse. (D) Gross micrograph of intestine of a NEC mouse treated with 1 mg/kg CpG-DNA daily for four days. (E) Micrograph of histological section of intestine of a control mouse. (F) Micrograph of histological section of intestine of a control mouse treated with CpG. (G) Micrograph of histological section of intestine of a NEC mouse. (H) Micrograph of histological section of intestine of a NEC mouse treated with CpG. (I) Summary bar graph of the above results.
FIG. 16 presents a Western blot showing expression of TLR4 and TLR9 in control mice and mice modeling necrotizing enterocolitis (“NEC”). A substantial increase in the level of TLR4, and a decrease in TLR9, was observed. […]

IEC-6 enterocytes = assay: Assessment of NFkB activation (nuclear:cytoplasmic ratio of p65) in IEC-6 enterocytes; assay type: cell-based; conditions: IEC-6 cells, LPS 50 μg/ml, CpG-DNA 1 μM, polymixin B 10 μg/ml, 1 hour
Experimental: FIG. 21. Nuclear:cytoplasmic ratio of NFκB, indicating the extent of translocation of NFκB into the nucleus, in IEC-6 cells which were either untreated (control); treated with LPS; treated with LPS and CpG; treated with LPS, CpG and polymixin B; treated with CpG; or treated with polymixin B. The concentrations used were LPS at […] CpG-DNA at 1 μM, and polymixin B at 10 μg/ml.
Assessment of NFkB activation. IEC-6 enterocytes were treated with LPS (50 μg/ml, Sigma-Aldrich, St. Louis, Mo.) and/or CpG-DNA (1 μM) either alone or in combination for 1 hour and immunostained with antibodies against the p65 subunit of NF-κB. Quantification of nuclear translocation was performed as adapted from Ding, et al. J Biol. Chem. 1998 Oct. 30; 273(44):28897-905. […] The average NF-κB p65 intensity of the cytoplasmic area was determined by subtracting the area and integrated intensity of the nuclear ROI from the nuclear+cytoplasmic ROI and dividing the cytoplasmic integrated intensity by the cytoplasmic area. The extent of p65 staining in the nucleus versus the cytoplasm (i.e. the nuclear to cytoplasmic ratio) was calculated for each cell by dividing the nuclear average NF-κB p65 intensity by the cytoplasmic average NF-κB p65 intensity. Nuclear to cytoplasmic ratio was calculated for more than 200 cells per treatment group for more than 4 separate experiments.

[2] = NEC mice, 1 mg/kg CpG-DNA daily for four days

Substance: 5′-TCCATGACGTTCCTGACGTT-3′ [CpG-DNA]
- serum IL-6 level (murine intestinal mucosa; mice): attenuated
- level of phosphorylated ERK (LPS-dependent signaling) (murine intestinal mucosa; murine intestinal mucosa): attenuated
- level of phosphorylated p38 (LPS-dependent signaling) (murine intestinal mucosa; murine intestinal mucosa): attenuated
- NEC pathology (gross and histological) [1, 2]: substantial inhibition of the NEC pathology
- apoptosis in terminal ileum (caspase 3) [1, 2]: substantially reduced apoptosis
- severity of experimental NEC ([1]; wild-type TLR4 mice, 500 μg/kg CpG intraperitoneally): limit the severity of experimental NEC
- LPS-induced translocation of NFκB into the nucleus (nuclear:cytoplasmic ratio) (IEC-6 enterocytes): significantly inhibited translocation
